Measurements published in ChEMBL document CHEMBL1201862, “PubChem BioAssay data set” (2004).
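Method: 48-hour compound exposure of cells in 96-well plates, five concentrations, linear interpolation of endpoints. At the GI50, growth is halved.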 Calls of active or inactive are those of the source. Cut-off read from the data, not from the text of the source: active = GI50 up to about 1.1 µM and inactive = higher.

Legend:
Test in all cases: growth of human tumour cells (NCI), 48 h
UACC-257 = test system: UACC-257
NCI-H522 = test system: NCI-H522
SN12C = test system: SN12C
A498 = test system: A498
MCF7 = test system: MCF7
PC-3 = test system: PC-3
NCI-H460 = test system: NCI-H460
SK-MEL-5 = test system: SK-MEL-5
SNB-75 = test system: SNB-75
TK-10 = test system: TK-10
A549 = test system: A549
OVCAR-3 = test system: OVCAR-3
MOLT-4 = test system: MOLT-4
786-0 = test system: 786-0
NCI-H23 = test system: NCI-H23
SK-MEL-28 = test system: SK-MEL-28
MDA-N = test system: MDA-N
HOP-92 = test system: HOP-92
Hs-578T = test system: Hs-578T

Measured: GI50

C=CCc1cccc(C(=O)/C=C(O)/C=C/c2ccccc2Cl)c1O
inactive: UACC-257 13.8 µM | NCI-H522 11.2 µM | SN12C 25.6 µM | A498 21.2 µM | MCF7 13.2 µM | PC-3 8.38 µM | NCI-H460 24.9 µM | SK-MEL-5 7.16 µM | SNB-75 67.3 µM | TK-10 42.7 µM | A549 8.91 µM | OVCAR-3 16.6 µM | MOLT-4 3.96 µM | 786-0 10.4 µM | NCI-H23 6.12 µM | SK-MEL-28 10.5 µM | MDA-N 27.7 µM | HOP-92 25.6 µM

O=C(O)C1CCCCN1C(=O)Cc1c[nH]c2ccccc12 (configuration not stated)
inactive: UACC-257 > 100 µM | NCI-H522 > 100 µM | SN12C > 100 µM | MCF7 > 100 µM | PC-3 > 100 µM | NCI-H460 > 100 µM | SNB-75 > 100 µM | TK-10 > 100 µM | A549 > 100 µM | OVCAR-3 > 100 µM | MOLT-4 > 100 µM | 786-0 > 100 µM | NCI-H23 > 100 µM | SK-MEL-28 > 100 µM | MDA-N > 100 µM | HOP-92 > 100 µM

CCOC(=O)C1CCCN1C(=O)c1ccccc1Cl (configuration not stated)
inactive: UACC-257 > 100 µM | NCI-H522 > 100 µM | SN12C > 100 µM | A498 > 100 µM | MCF7 > 100 µM | NCI-H460 > 100 µM | SK-MEL-5 > 100 µM | SNB-75 > 100 µM | TK-10 > 100 µM | A549 > 100 µM | OVCAR-3 > 100 µM | MOLT-4 > 100 µM | 786-0 > 100 µM | NCI-H23 > 100 µM | SK-MEL-28 > 100 µM | MDA-N > 100 µM | HOP-92 75.9 µM | Hs-578T > 100 µM

O=c1[nH]c(=O)n(C2CC(O)C(CO)O2)cc1OCC1CCCCC1 (configuration not stated)
inactive: UACC-257 > 100 µM | NCI-H522 > 100 µM | SN12C > 100 µM | MCF7 > 100 µM | PC-3 > 100 µM | NCI-H460 > 100 µM | SK-MEL-5 > 100 µM | SNB-75 > 100 µM | TK-10 > 100 µM | A549 > 100 µM | OVCAR-3 > 100 µM | MOLT-4 > 100 µM | 786-0 > 100 µM | NCI-H23 > 100 µM | SK-MEL-28 > 100 µM | MDA-N > 100 µM | Hs-578T > 100 µM

COc1ccc(CCCCl)c(C2=NCCc3cc(OC)c(OC)cc32)c1
inactive: UACC-257 42.3 µM | NCI-H522 28.8 µM | SN12C 54.3 µM | A498 > 100 µM | MCF7 41.5 µM | PC-3 35.3 µM | NCI-H460 37.8 µM | SK-MEL-5 26.1 µM | SNB-75 42.3 µM | TK-10 > 100 µM | A549 69.7 µM | OVCAR-3 92.7 µM | MOLT-4 41.6 µM | 786-0 94.8 µM | NCI-H23 31.5 µM | SK-MEL-28 63.2 µM | HOP-92 20.6 µM | Hs-578T 32.7 µM

Oc1[nH]c(Nc2cc(Cl)cc(Cl)c2)nc2ncnc1-2
inactive: UACC-257 > 75 µM | SN12C > 75 µM | MCF7 > 75 µM | PC-3 > 75 µM | NCI-H460 > 75 µM | SK-MEL-5 > 75 µM | SNB-75 > 75 µM | TK-10 > 75 µM | A549 > 75 µM | OVCAR-3 > 75 µM | MOLT-4 > 75 µM | 786-0 > 75 µM | NCI-H23 > 75 µM | MDA-N > 75 µM | HOP-92 > 75 µM | Hs-578T 17.9 µM

Cc1ccc2[nH]c3c(c(=O)n(C)c(=O)n3C)c2c1
inactive: UACC-257 > 100 µM | NCI-H522 > 100 µM | SN12C > 100 µM | A498 > 100 µM | MCF7 > 100 µM | SK-MEL-5 > 100 µM | SNB-75 > 100 µM | TK-10 > 100 µM | A549 > 100 µM | MOLT-4 > 100 µM | 786-0 > 100 µM | NCI-H23 > 100 µM | MDA-N > 100 µM | HOP-92 > 100 µM | Hs-578T > 100 µM

Cc1nn(C(=O)c2ccncc2)c2c1C(c1ccccc1[N+](=O)[O-])SC(=N)N2 (configuration not stated)
inactive: UACC-257 > 10 µM | SN12C > 10 µM | MCF7 > 10 µM | PC-3 > 10 µM | NCI-H460 > 10 µM | SK-MEL-5 > 10 µM | SNB-75 > 10 µM | TK-10 > 10 µM | A549 > 10 µM | OVCAR-3 > 10 µM | MOLT-4 > 10 µM | 786-0 > 10 µM | NCI-H23 > 10 µM | SK-MEL-28 > 10 µM | MDA-N > 10 µM | HOP-92 > 10 µM | Hs-578T > 10 µM

N#CCc1n[nH]c2nc(SCc3ccccc3)nc(N3CCCCC3)c12
inactive: UACC-257 20.8 µM | NCI-H522 19.3 µM | SN12C 13 µM | A498 30.5 µM | MCF7 21.9 µM | PC-3 18.8 µM | NCI-H460 19.6 µM | SK-MEL-5 18.5 µM | SNB-75 18.2 µM | TK-10 23.1 µM | A549 19.3 µM | OVCAR-3 20.7 µM | MOLT-4 20.6 µM | 786-0 17.3 µM | NCI-H23 18.5 µM | SK-MEL-28 20.5 µM | HOP-92 16.6 µM | Hs-578T 21.4 µM

O=C1CCCC2C(O)CCC[C@H]12 (some centres not stated)
inactive: UACC-257 > 100 µM | NCI-H522 > 100 µM | SN12C > 100 µM | MCF7 > 100 µM | PC-3 > 100 µM | NCI-H460 > 100 µM | SK-MEL-5 > 100 µM | SNB-75 > 100 µM | TK-10 > 100 µM | A549 > 100 µM | MOLT-4 > 100 µM | 786-0 > 100 µM | NCI-H23 > 100 µM | SK-MEL-28 > 100 µM | MDA-N > 100 µM | Hs-578T > 100 µM

O=C(NCCN1CCCCC1)c1cccc(I)c1
inactive: SN12C > 100 µM | A498 > 100 µM | MCF7 > 100 µM | PC-3 > 100 µM | NCI-H460 > 100 µM | SK-MEL-5 > 100 µM | SNB-75 55.2 µM | TK-10 > 100 µM | A549 > 100 µM | OVCAR-3 > 100 µM | MOLT-4 > 100 µM | 786-0 > 100 µM | NCI-H23 > 100 µM | SK-MEL-28 > 100 µM | HOP-92 94.2 µM | Hs-578T > 100 µM

C[C@@H]1[C@@H](c2ccccc2)O[B-](c2ccccc2)(c2ccccc2)[N+]1(C)C
inactive: UACC-257 > 100 µM | NCI-H522 58.2 µM | SN12C > 100 µM | A498 67.8 µM | PC-3 22.8 µM | NCI-H460 > 100 µM | SK-MEL-5 27.5 µM | TK-10 54.7 µM | A549 > 100 µM | OVCAR-3 70.5 µM | MOLT-4 > 100 µM | 786-0 66.7 µM | NCI-H23 90.6 µM | SK-MEL-28 58.3 µM | MDA-N 54.1 µM | HOP-92 25.4 µM | Hs-578T 54.2 µM
